Earlier results on two compounds are cited in patent publication US7390503B1, “Ondansetron orally disintegrating tablets” (Barr Laboratories, Inc., priority 2003, dated 2008).

Structures can show the parent of a compound that is named as a salt. Where two headings read alike, the source gives them in different places.

The conditions of the data set: general statement, no test described.

On to `Cc1nccn1CC1CCc2c(c3ccccc3n2C)C1=O` (centres unmarked) [ondansetron in free base form, 1,2,3,9-tetrahydro-9-methyl-3-[(2-methyl-1H-imidazol-1-yl)methyl]-4H-carbazol-4-one], for which the solubility in water result is listed as “soluble in water”.

As to `Cc1nccn1CC1CCc2c(c3ccccc3n2C)C1=O` (centres unmarked) [Ondansetron hydrochloride dihydrate], the solubility in water entry (hydrochloride dihydrate) is listed as “freely soluble in water”.
